# Test results taken from ChEMBL document CHEMBL5120927, “LEGO-Lipophosphonoxins: A Novel Approach in Designing Membrane Targeting Antimicrobials” (J Med Chem, 2022).
# How the values were obtained:
# Staphylococcus aureus [1] = test: Antibacterial activity against wild type methicillin resistant Staphylococcus aureus 4561/A assessed as reduction in microbial growth incubated for 24 hrs by microdilution assay; assay type: functional
# Staphylococcus aureus [2] = test: Antibacterial activity against wild type methicillin resistant Staphylococcus aureus 4968/C assessed as reduction in microbial growth incubated for 24 hrs by microdilution assay; assay type: functional
# Staphylococcus aureus [3] = test: Antibacterial activity against wild type methicillin resistant Staphylococcus aureus 5017/C assessed as reduction in microbial growth incubated for 24 hrs by microdilution assay; assay type: functional
# Staphylococcus aureus [4] = test: Antibacterial activity against wild type Staphylococcus aureus 4557/A assessed as reduction in microbial growth incubated for 24 hrs by microdilution assay; assay type: functional
# Staphylococcus aureus [5] = test: Antibacterial activity against […] Staphylococcus aureus 4463/A assessed as reduction in microbial growth incubated for 24 hrs by microdilution assay; assay type: functional
# Staphylococcus aureus [6] = test: Antibacterial activity against wild type Staphylococcus aureus 4904/C assessed as reduction in microbial growth incubated for 24 hrs by microdilution assay; assay type: functional
# Staphylococcus aureus [7] = test: Antibacterial activity against wild type Staphylococcus aureus 4883/C assessed as reduction in microbial growth incubated for 24 hrs by microdilution assay; assay type: functional
# Staphylococcus aureus [8] = test: Antibacterial activity against […] Staphylococcus aureus 4460/A assessed as reduction in microbial growth incubated for 24 hrs by microdilution assay; assay type: functional
# Staphylococcus aureus [9] = test: Antibacterial activity against wild type Staphylococcus aureus 4482/A assessed as reduction in microbial growth incubated for 24 hrs by microdilution assay; assay type: functional
# Staphylococcus aureus [10] = test: Antibacterial activity against wild type Staphylococcus aureus 4566/A assessed as reduction in microbial growth incubated for 24 hrs by microdilution assay; assay type: functional
# Staphylococcus aureus [11] = test: Antibacterial activity against wild type Staphylococcus aureus 4504/A assessed as reduction in microbial growth incubated for 24 hrs by microdilution assay; assay type: functional
# Staphylococcus aureus [12] = test: Antibacterial activity against wild type Staphylococcus aureus 4740/B assessed as reduction in microbial growth incubated for 24 hrs by microdilution assay; assay type: functional
# Staphylococcus aureus [13] = test: Antibacterial activity against wild type Staphylococcus aureus 4717/B assessed as reduction in microbial growth incubated for 24 hrs by microdilution assay; assay type: functional
# Staphylococcus aureus [14] = test: Antibacterial activity against wild type Staphylococcus aureus 4738/B assessed as reduction in microbial growth incubated for 24 hrs by microdilution assay; assay type: functional
# Staphylococcus aureus [15] = test: Antibacterial activity against […] Staphylococcus aureus 4461/A assessed as reduction in microbial growth incubated for 24 hrs by microdilution assay; assay type: functional
# Staphylococcus aureus [16] = test: Antibacterial activity against wild type Staphylococcus aureus 4679/B assessed as reduction in microbial growth incubated for 24 hrs by microdilution assay; assay type: functional
# Staphylococcus aureus [17] = test: Antibacterial activity against wild type Staphylococcus aureus 4502/A assessed as reduction in microbial growth incubated for 24 hrs by microdilution assay; assay type: functional
# Staphylococcus aureus [18] = test: Antibacterial activity against wild type Staphylococcus aureus 4515/A assessed as reduction in microbial growth incubated for 24 hrs by microdilution assay; assay type: functional
# Staphylococcus aureus [19] = test: Antibacterial activity against wild type Staphylococcus aureus 5079/C assessed as reduction in microbial growth incubated for 24 hrs by microdilution assay; assay type: functional
# Staphylococcus aureus [20] = test: Antibacterial activity against wild type Staphylococcus aureus 4788/B assessed as reduction in microbial growth incubated for 24 hrs by microdilution assay; assay type: functional
# Staphylococcus aureus [21] = test: Antibacterial activity against wild type Staphylococcus aureus 78/CF assessed as reduction in microbial growth incubated for 24 hrs by microdilution assay; assay type: functional
# Staphylococcus aureus [22] = test: Antibacterial activity against wild type Staphylococcus aureus 77/CF assessed as reduction in microbial growth incubated for 24 hrs by microdilution assay; assay type: functional
# Staphylococcus aureus [23] = test: microbe, parasite or virus in culture; conditions: 4862/C, 24 h
# Description: Antibacterial activity against wild type Staphylococcus aureus 4862/C assessed as reduction in microbial growth incubated for 24 hrs by microdilution assay
# Staphylococcus aureus [24] = test: microbe, parasite or virus in culture; conditions: 4880/C, 24 h
# Description: Antibacterial activity against wild type Staphylococcus aureus 4880/C assessed as reduction in microbial growth incubated for 24 hrs by microdilution assay
# Enterococcus faecalis = test: Antibacterial activity against Enterococcus faecalis ATCC 29212 = CCM 4224 assessed as inhibition of bacterial growth incubated for 24 hrs by microdilution assay; assay type: functional
# Staphylococcus aureus [25] = test: Antibacterial activity against Staphylococcus aureus ATCC 29213 = CCM 4223 assessed as inhibition of bacterial growth incubated for 24 hrs by microdilution assay; assay type: functional
# Staphylococcus aureus [26] = test: Antibacterial activity against Staphylococcus aureus ATCC 29213 = CCM 4223 assessed as inhibition of bacterial growth incubated for 24 hrs in presence of BSA by microdilution assay; assay type: functional
# Escherichia coli [27] = test: Antibacterial activity against Escherichia coli ATCC 25922 = CCM 3954 assessed as inhibition of bacterial growth incubated for 24 hrs by microdilution assay; assay type: functional
# Escherichia coli [28] = test: Antibacterial activity against Escherichia coli ATCC 25922 = CCM 3954 assessed as inhibition of bacterial growth incubated for 24 hrs in presence of BSA by microdilution assay; assay type: functional
# Pseudomonas aeruginosa [29] = test: Antibacterial activity against Pseudomonas aeruginosa ATCC 27853 = CCM 3955 assessed as inhibition of bacterial growth incubated for 24 hrs by microdilution assay; assay type: functional
# [30] = Hemolytic activity in human RBC assessed as haemoglobin release measured after 3 hr; assay type: toxicity, cell-based, Erythrocyte; conditions: red blood cells (erythrocytes)
# [31] = Gradient chromatographic hydrophobicity index of the compound at pH 3.7 by HPLC analysis; assay type: ADME
# [32] = system: Staphylococcus epidermidis; test: Antibacterial activity against Staphylococcus epidermidis CCM 7221 assessed as inhibition of bacterial growth incubated for 24 hrs by microdilution assay; assay type: functional
# Staphylococcus aureus [33] = test: Antibacterial activity against methicillin resistant Staphylococcus aureus 4591/A assessed as reduction in microbial growth incubated for 24 hrs by microdilution assay; assay type: functional
# Escherichia coli [34] = test: Antibacterial activity against multidrug-resistant Escherichia coli CE5556 expressing CTX-M-15 assessed as reduction in microbial growth incubated for 24 hrs by microdilution assay; assay type: functional
# Enterococcus faecium = test: Antibacterial activity against vancomycin resistant Enterococcus faecium 419/ANA assessed as reduction in microbial growth incubated for 24 hrs by microdilution assay; assay type: functional
# Pseudomonas aeruginosa [35] = test: Antibacterial activity against multidrug-resistant Pseudomonas aeruginosa assessed as reduction in microbial growth incubated for 24 hrs by microdilution assay; assay type: functional
# Staphylococcus aureus [36] = test: Antibacterial activity against wild type Staphylococcus aureus 4561/A assessed as reduction in microbial growth incubated for 24 hrs by microdilution assay; assay type: functional
# Staphylococcus aureus [37] = test: Antibacterial activity against wild type Staphylococcus aureus 4968/C assessed as reduction in microbial growth incubated for 24 hrs by microdilution assay; assay type: functional
# Staphylococcus aureus [38] = test: microbe, parasite or virus in culture; conditions: 5017/C, 24 h
# Description: Antibacterial activity against wild type Staphylococcus aureus 5017/C assessed as reduction in microbial growth incubated for 24 hrs by microdilution assay
# Staphylococcus aureus [39] = test: Antibacterial activity against antibiotic resistant Staphylococcus aureus 77/CF assessed as reduction in microbial growth incubated for 24 hrs by microdilution assay; assay type: functional
# Staphylococcus aureus [40] = test: Antibacterial activity against antibiotic resistant Staphylococcus aureus 4740/B assessed as reduction in microbial growth incubated for 24 hrs by microdilution assay; assay type: functional
# Staphylococcus aureus [41] = test: Antibacterial activity against antibiotic resistant Staphylococcus aureus 4504/A assessed as reduction in microbial growth incubated for 24 hrs by microdilution assay; assay type: functional
# Staphylococcus aureus [42] = test: Antibacterial activity against antibiotic resistant Staphylococcus aureus 4679/B assessed as reduction in microbial growth incubated for 24 hrs by microdilution assay; assay type: functional
# Staphylococcus aureus [43] = test: Antibacterial activity against antibiotic resistant Staphylococcus aureus 4502/A assessed as reduction in microbial growth incubated for 24 hrs by microdilution assay; assay type: functional
# Pseudomonas aeruginosa [44] = test: Antibacterial activity against Pseudomonas aeruginosa assessed as reduction in microbial growth measured after 20 cycles by microdilution assay; assay type: functional; conditions: Pseudomonas aeruginosa; time 24 hrs
Compound,MIC (Staphylococcus aureus [4]) [µg/mL],MIC (Staphylococcus aureus [5]) [µg/mL],MIC (Staphylococcus aureus [6]) [µg/mL],MIC (Staphylococcus aureus [7]) [µg/mL],MIC (Staphylococcus aureus [8]) [µg/mL],MIC (Staphylococcus aureus [9]) [µg/mL],MIC (Staphylococcus aureus [10]) [µg/mL],MIC (Staphylococcus aureus [11]) [µg/mL],MIC (Staphylococcus aureus [12]) [µg/mL],MIC (Staphylococcus aureus [13]) [µg/mL],MIC (Staphylococcus aureus [14]) [µg/mL],MIC (Staphylococcus aureus [15]) [µg/mL],MIC (Staphylococcus aureus [16]) [µg/mL],MIC (Staphylococcus aureus [17]) [µg/mL],MIC (Staphylococcus aureus [18]) [µg/mL],MIC (Staphylococcus aureus [19]) [µg/mL],MIC (Staphylococcus aureus [20]) [µg/mL],MIC (Staphylococcus aureus [21]) [µg/mL],MIC (Staphylococcus aureus [23]) [µg/mL],MIC (Staphylococcus aureus [24]) [µg/mL],further results
Cc1onc(-c2ccccc2)c1C(=O)N[C@@H]1C(=O)N2[C@@H]1SC(C)(C)[C@@H]2C(=O)O [OXACILLIN],0.25,0.25,0.25,0.25,0.25,0.25,0.25,0.25,0.25,0.25,0.25,0.25,0.25,0.25,0.25,0.25,0.125,0.25,0.25,0.25,MIC (Staphylococcus aureus [1]): > 8 µg/mL; MIC (Staphylococcus aureus [2]): > 16 µg/mL; MIC (Staphylococcus aureus [3]): > 16 µg/mL; MIC (Staphylococcus aureus [22]): 0.25 µg/mL
CCCCCCOP(=O)(CCN(CCCNC(=N)N)CCCNC(=N)N)OCCCCCCCCOP(=O)(CCN(CCCNC(=N)N)CCCNC(=N)N)OCCCCCC.Cl.Cl.Cl.Cl.Cl.Cl (configuration not stated),0.5,0.5,0.5,0.5,0.5,0.5,0.5,0.25,0.5,0.25,0.5,0.5,0.5,0.5,0.5,0.5,0.5,0.5,0.5,0.5,MIC (Enterococcus faecalis): 8 µg/mL; MIC (Staphylococcus aureus [25]): 5 µg/mL; MIC (Staphylococcus aureus [26]): 0.5 µg/mL; MIC (Escherichia coli [27]): 16 µg/mL; MIC (Escherichia coli [28]): 2 µg/mL; MIC (Pseudomonas aeruginosa [29]): 8 µg/mL; HC50 at 3 h [30]: 139 µg/mL; CHI [31]: 31.5; MIC [32]: 0.5 µg/mL; MIC (Staphylococcus aureus [33]): 5 µg/mL; MIC (Escherichia coli [34]): 5 µg/mL; MIC (Enterococcus faecium): 16 µg/mL; MIC (Pseudomonas aeruginosa [35]): 8 µg/mL; MIC (Staphylococcus aureus [22]): 0.5 µg/mL; MIC (Staphylococcus aureus [36]): 0.5 µg/mL; MIC (Staphylococcus aureus [37]): 0.5 µg/mL; MIC (Staphylococcus aureus [38]): 0.5 µg/mL
CC1(C)S[C@@H]2[C@H](NC(=O)[C@H](N)c3ccccc3)C(=O)N2[C@H]1C(=O)O [AMPICILLIN],0.5,0.5,0.5,0.5,1,1,0.5,0.5,0.5,0.5,0.5,1,1,0.5,0.5,0.5,0.5,0.5,1,0.5,MIC (Staphylococcus aureus [3]): > 16 µg/mL; MIC (Staphylococcus aureus [22]): 0.5 µg/mL
O=C(N[C@H](CO)[C@H](O)c1ccc([N+](=O)[O-])cc1)C(Cl)Cl [CHLORAMPHENICOL],2,2,2,4,2,2,4,4,1,4,4,2,4,2,2,2,2,1,4,2,MIC (Staphylococcus aureus [22]): 1 µg/mL; MIC (Staphylococcus aureus [36]): 4 µg/mL; MIC (Staphylococcus aureus [37]): 4 µg/mL; MIC (Staphylococcus aureus [38]): 4 µg/mL
CCC[C@@H]1C[C@@H](C(=O)N[C@@H]([C@H]2O[C@H](SC)[C@H](O)[C@@H](O)[C@H]2O)[C@H](C)Cl)N(C)C1 [CLINDAMYCIN],0.125,0.125,0.125,0.125,0.125,0.125,0.125,0.125,0.125,0.125,0.125,0.125,0.125,0.063,0.125,0.063,0.063,0.063,0.125,0.25,MIC (Staphylococcus aureus [39]): > 8 µg/mL; MIC (Staphylococcus aureus [1]): > 4 µg/mL; MIC (Staphylococcus aureus [2]): > 8 µg/mL; MIC (Staphylococcus aureus [3]): > 8 µg/mL
CC[C@H]1OC(=O)[C@H](C)[C@@H](O[C@H]2C[C@@](C)(OC)[C@@H](O)[C@H](C)O2)[C@H](C)[C@@H](O[C@@H]2O[C@H](C)C[C@H](N(C)C)[C@H]2O)[C@](C)(O)C[C@@H](C)C(=O)[C@H](C)[C@@H](O)[C@]1(C)O [ERYTHROMYCIN],0.25,0.25,0.25,0.25,0.25,0.25,0.25,0.25,,0.25,0.25,0.25,0.25,0.125,0.25,0.25,0.125,0.125,0.25,0.25,MIC (Staphylococcus aureus [40]): > 16 µg/mL; MIC (Staphylococcus aureus [39]): > 16 µg/mL; MIC (Staphylococcus aureus [1]): > 4 µg/mL; MIC (Staphylococcus aureus [2]): > 16 µg/mL; MIC (Staphylococcus aureus [3]): > 16 µg/mL
GENTAMICIN,1,0.25,0.25,0.25,0.25,0.25,0.25,,0.25,0.25,0.25,0.25,,,0.25,0.25,0.25,1,,,MIC (Staphylococcus aureus [41]): > 32 µg/mL; MIC (Staphylococcus aureus [42]): > 32 µg/mL; MIC (Staphylococcus aureus [43]): > 32 µg/mL; MIC (Staphylococcus aureus [39]): > 32 µg/mL; MIC (Staphylococcus aureus [36]): 0.25 µg/mL; MIC (Staphylococcus aureus [37]): 0.25 µg/mL
CC(C)(O/N=C(\C(=O)N[C@@H]1C(=O)N2C(C(=O)[O-])=C(C[n+]3ccccc3)CS[C@H]12)c1csc(N)n1)C(=O)O [CEFTAZIDIME],,,,,,,,,,,,,,,,,,,,,MIC (Pseudomonas aeruginosa [44]): 128 µg/mL
O=C(O)c1cn(C2CC2)c2cc(N3CCNCC3)c(F)cc2c1=O [CIPROFLOXACIN],0.25,0.25,0.25,0.25,,,0.25,0.25,0.5,0.25,0.25,0.25,0.25,,,0.25,0.063,0.25,0.25,0.25,MIC (Staphylococcus aureus [1]): > 8 µg/mL; MIC (Staphylococcus aureus [2]): > 8 µg/mL; MIC (Staphylococcus aureus [3]): > 8 µg/mL; MIC (Staphylococcus aureus [22]): 0.5 µg/mL
